Results taken from article PMC8584447, “Adhesive Antimicrobial Peptides Containing 3,4-Dihydroxy-L-Phenylalanine Residues for Direct One-Step Surface Coating” (International Journal of Molecular Sciences, 2021).
Ends that are not written are not given here.

Experiments:
E. coli [1] = assay: Antibacterial activity of peptide-coated surfaces (ISO 22196, modified), E. coli; type: cell-based, Escherichia coli
Experimental: (§1) To coat the designed peptides on a surface, 200 μL of freshly prepared 200 μM peptide solution (10 mM Tris-HCl, pH 8.5) was added into a 24-well PS plate and incubated for 10 min at 37 °C. After coating, the plates were rinsed with deionized water and air-dried. The PS, Ti, and PDMS pieces (1 cm × 1 cm) were coated in the same manner. For the PD-mediated AMP coating, a layer of PD was first coated on a 24-well PS plate by dip coating, as previously described, with minor modifications. Each PS well was treated with 2 mg/mL dopamine solution (10 mM Tris-HCl, pH 8.5) and incubated for approximately 1 h at 37 °C. The PD-coated wells were washed twice with deionized water to remove excess dopamine. To attach the NKC peptide to a PD-coated 24-well PS plate, NKC peptide solution (200 μM) was dispensed into each well, and the plate was incubated at 37 °C for 24 h. The wells with the immobilized peptide were then washed twice with deionized water.
(§2) The bactericidal activities of the AMP-coated surfaces were evaluated following the International Organization for Standardization 22196 standard with slight modifications. Overnight bacterial suspensions were subcultured in fresh LB until the mid-log phase and diluted to 10^6 cells/mL with 500-fold diluted LB. The AMP-coated and uncoated substrates (1 cm × 1 cm) were placed in 24-well plates, and 10 μL of the bacterial suspension was distributed over the substrate surface. The substrates were covered with a piece of polyethylene film (1 cm × 1 cm) and incubated for 2 h (37 °C, relative humidity: >90%). Subsequently, SCDLP broth (990 μL) was added, and viable cells were retrieved and serially diluted. Aliquots (100 μL) of the bacterial suspension were withdrawn and plated for colony counting.

P. aeruginosa [2] = assay: Antibacterial activity of peptide-coated surfaces (ISO 22196, modified), P. aeruginosa; type: cell-based, Pseudomonas aeruginosa; settings: NKC-DOPA5-coated PS, Ti and PDMS (1 cm × 1 cm), 10 μL of 10^6 cells/mL, 37 °C
Experimental: as §1
(§3) The bactericidal activities of the AMP-coated surfaces were evaluated following the International Organization for Standardization 22196 standard with slight modifications. Overnight bacterial suspensions were subcultured in fresh LB until the mid-log phase and diluted to 10^6 cells/mL with 500-fold diluted LB. […]

S. aureus [3] = assay: Antibacterial activity of peptide-coated surfaces (ISO 22196, modified), S. aureus; type: cell-based, Staphylococcus aureus; settings: NKC-DOPA5-coated PS, Ti and PDMS (1 cm × 1 cm), 10 μL of 10^6 cells/mL, 37 °C
Experimental: as §1, §3

E. coli [4] = assay: Bacterial adhesion / biofilm assay (live/dead staining, confocal microscopy), E. coli; type: cell-based, Escherichia coli; settings: 10^7 cells/mL, 24 h, 37 °C, SYTO9/PI staining
Experimental: (§4) The viability of bacterial cells adhered to the substrate surface was evaluated using the Live/Dead BacLight Bacterial Viability Kit (Thermo Fisher Scientific) according to the manufacturer’s instructions. Briefly, 200 μL of bacterial suspensions adjusted to 10^7 cells/mL were incubated on uncoated or peptide-coated chambered cover glasses (Thermo Fisher Scientific) at 37 °C for 24 h. After 24 h, planktonic cells were removed, and the surfaces were washed with 0.85% (w/v) NaCl buffer. Cells attached to the surfaces were stained for 15 min in the dark with BacLight stock solution containing two fluorescent nucleic acid stains, SYTO9 and propidium iodide (PI). After staining, the surfaces were washed with 0.85% NaCl solution, and the stained cells were photographed using confocal laser-scanning microscopy (LSM 5 LIVE DuoScan, Carl Zeiss, Jena, Germany) using a 63× objective. The excitation wavelengths were 488 and 561 nm for SYTO9 and PI, respectively.

P. aeruginosa [5] = assay: Bacterial adhesion / biofilm assay (live/dead staining, confocal microscopy), P. aeruginosa; type: cell-based, Pseudomonas aeruginosa; settings: 10^7 cells/mL, 24 h, 37 °C, SYTO9/PI staining
Experimental: as §4

S. aureus [6] = assay: Bacterial adhesion / biofilm assay (live/dead staining, confocal microscopy), S. aureus; type: cell-based, Staphylococcus aureus; settings: 10^7 cells/mL, 24 h, 37 °C, SYTO9/PI staining
Experimental: as §4

E. coli [7] = assay: Stability assessment of surface-coated peptide (antimicrobial activity after storage); type: cell-based, Escherichia coli; settings: for antimicrobial activity after storage: coated PS stored at 25 °C, (Nc−N)/Nc×100, mean ± SD
Experimental: as §2
To evaluate the stability of the surface-coated peptides, antimicrobial activity was determined as described above after incubating the AMP-coated PS plates for 1, 7, 14, 21, 28, 56, and 84 days at 4 °C and 25 °C and with the formula below: Antimicrobial activity (%)=Nc−N/Nc×100 where Nc and N represent the number of colonies after incubation on the control and AMP-coated substrates, respectively.

P. aeruginosa [8] = assay: Rat subcutaneous implant infection model; type: in vivo, Sprague–Dawley rats
Experimental: In vivo antibacterial activity was evaluated using specific pathogen-free Sprague–Dawley male rats (7 weeks old, weighing 200−220 g). All animal experiments were approved by the Animal Ethics Committee of KNOTUS, Incheon, Korea (approval no. 18-KE-383) and performed following the guidelines for the care and use of laboratory animals of KNOTUS. All rats were housed in individually ventilated cages and acclimated for 7 days before surgery. For implantation, the rats were anesthetized by intramuscular injection of Zoletil® (30 mg/kg; Virbac, Carros, France), and the dorsum was shaved and disinfected with 70% isopropyl alcohol. Approximately 1 cm wide incisions were made parallel to the spine and extended to the subdermal fascia. For the control group, uncoated Ti screws or PDMS slides were implanted into the left flank, whereas AMP-coated implants were inserted into the right flank. The wounds were sutured, and the implant site was marked on the skin. Setting the skin mark as a guide, 100 μL of a p. aeruginosa inoculum containing 2.5 × 10^8 cells/mL was injected subcutaneously. The rats were euthanized by CO2 asphyxia at 5 days after the bacterial challenge. The implants were removed using sterile tools and placed in sterile tubes containing 1 mL of PBS. For the detachment of bacteria from the implant materials, the tubes were sonicated for 15 min, and 10-fold serial dilutions of the bacterial solution were plated on LB agar for CFU determination. The tissues surrounding the implants were carefully removed, separately immersed in 1 mL of PBS, and homogenized. Bacteria in the tissues were quantified by serial dilution. For histological examination, the tissues surrounding the implants were formaldehyde-fixed, paraffin-embedded, and then stained with hematoxylin and eosin [26].

E. coli ATCC 27325 = type: cell-based, Escherichia coli; settings: ATCC 27325, 18 h
Experimental: The MICs of the designed peptides were measured against the gram-negative bacterium E. coli ATCC 27325 according to the general guidelines of the Clinical and Laboratory Standards Institute, with some modifications based on a study of cationic AMPs. Briefly, a single bacterial colony was cultured in Mueller−Hinton broth (MHB; Sigma–Aldrich) until the mid-log phase (optical density of 0.4–0.6 at 600 nm). The bacterial suspension was diluted with fresh MHB to a concentration of 10^6 colony-forming units (CFU)/mL. Next, two-fold serial dilutions (128 to 1 μM) of the peptides were prepared in MHB and mixed (1:1) with the diluted bacterial culture, resulting in a final peptide concentration ranging from 64 to 0.5 μM and final bacteria concentration of 5 × 10^5 cells/mL. The mixtures were placed into 96-well polypropylene microtiter plates (Corning), with sterile MHB used as a negative control and MHB inoculated with bacterial cells used as growth control. The plates were incubated for 18 h at 37 °C with shaking at 200 rpm. The MIC values were determined as the lowest concentrations at which no bacterial growth was recorded at 600 nm using a microplate reader (Infinite 200 Pro; Tecan, Männedorf, Switzerland).

[9] = peptide-coated 24-well PS, 10^6 cells/mL E. coli, 2 h, colony counting
[10] = coated PDMS implants, 5 days post-inoculation

Experimental for HaCaT cells: To evaluate the toxicity of the peptides coated on the substrates towards human skin, the mitochondrial dehydrogenase activity of HaCaT keratinocytes was measured in a modified 3-(4,5-dimethyl-2-thiazolyl)-2,5-diphenyl-2H-tetrazolium bromide (MTT) reduction assay. HaCaT cells were routinely cultured in Dulbecco’s modified Eagle’s medium (DMEM; Lonza, Basel, Switzerland) with 10% fetal bovine serum (Lonza) and 1% penicillin–streptomycin solution (Thermo Fisher Scientific) in humidified 5% CO2 at 37 °C. The cultured cells were washed twice with phosphate-buffered saline (PBS; pH 7.4) and detached by trypsinization. The harvested HaCaT cells were diluted to 5 × 10^4 cells/mL, seeded into 12-well culture plates, and incubated in a humidified incubator with 5% CO2. After incubation, the medium was changed to serum-free DMEM, and uncoated or AMP-coated pieces (PS/Ti/PDMS; 1 cm × 1 cm) were placed upside down on the HaCaT cells. After 24 h, the pieces were removed, and MTT solution in 1 mL of DMEM was added to each well. […] The plate was incubated overnight, and the absorbance was measured at 570 nm using a microplate reader (Tecan Infinite 200 Pro). […] Cell viability was expressed as the percentage of surviving cells on the coated substrates relative to those on the uncoated substrates.

Q: “APKAMKLLKKLLKLQKKGIGGGGSGGGGSY [NKC-DOPA1, NKC with glycine–serine linker and 1 DOPA moiety at the C-terminus]” was tested. Which “bacterial growth on coated surface (in words)” value (E. coli [1]; [9]) did it give?
A: hardly inhibited bacterial growth

Q: How did the “log reduction in the cell count” value (E. coli [1]; [9]) turn out when “APKAMKLLKKLLKLQKKGIGGGGSGGGGSYYY [NKC-DOPA3, NKC with glycine–serine linker and 3 DOPA moieties at the C-terminus]” was run?
A: 5.7 log

Q: What does the source list for “APKAMKLLKKLLKLQKKGIGGGGSGGGGSYYYYY [NKC-DOPA5]”?
A: number of viable bacterial cells after 2 h (E. coli [1]; NKC-DOPA5-coated PS, Ti and PDMS (1 cm × 1 cm), 10 μL of 10^6 cells/mL, 37 °C): zero; bacterial growth on coated surface (in words) (E. coli [1]; [9]): No bacterial growth was observed; number of viable bacterial cells after 2 h (P. aeruginosa [2]): zero; number of viable bacterial cells after 2 h (S. aureus [3]): zero; biofilm formation on coated surface (E. coli [4]): remarkably inhibited biofilm formation; biofilm formation on coated surface (P. aeruginosa [5]): remarkably inhibited biofilm formation; biofilm formation on coated surface (S. aureus [6]): remarkably inhibited biofilm formation; change in antimicrobial activity during storage (E. coli [7]; coated PS plate stored at 4 °C for 84 days): no change; antimicrobial activity after storage (E. coli [7]; 7 days): 99.75 ± 0.16%; antimicrobial activity after storage (E. coli [7]; 84 days): 99.17 ± 3.25%; decrease in number of bacteria recovered from surrounding tissues vs pristine (P. aeruginosa [8]; PDMS implants, 5 days post-inoculation): approximately 3.8 log CFU/g; difference in number of bacteria in surrounding tissues, pristine vs coated (P. aeruginosa [8]; Ti implants, 5 days post-inoculation): 3 log CFU/g; implants from which microorganisms were absent (P. aeruginosa [8]; [10]): three of the five implants; median number of bacteria recovered from surrounding tissues (P. aeruginosa [8]; [10]): 0.9 log CFU/g; average bacterial count per implant (P. aeruginosa [8]; coated PDMS implants, five implants, 5 days post-inoculation): 0.92 log CFU/mL per implant; microbial loads of the two colonised implants (P. aeruginosa [8]; coated PDMS, the other two of five implants, 5 days post-inoculation): 2.0−2.6 log CFU/mL; number of bacteria from tissues surrounding the implants (P. aeruginosa [8]; coated Ti implants, 5 days post-inoculation): 2.7 log CFU/g; microorganisms on implants (P. aeruginosa [8]; coated Ti screw, five implants, 5 days post-inoculation of P. aeruginosa): no microorganisms were observed; inflammation of tissues around the implants (P. aeruginosa [8]; coated Ti screws and PDMS, 5 days post-inoculation, gross observation): without apparent inflammation; cell viability (HaCaT cells): > 90%

Q: “APKAMKLLKKLLKLQKKGIGGGGSGGGGSYYYYYYY [NKC-DOPA7, NKC with glycine–serine linker and 7 DOPA moieties at the C-terminus]” was tested. Which “bacterial growth on coated surface (in words)” value (E. coli [1]; [9]) did it give?
A: No bacterial growth was observed

Q: How did the MIC (E. coli ATCC 27325) turn out when “APKAMKLLKKLLKLQKKGI-NH2 (C-terminus assumed) [NKC, reference compound]” was run?
A: 1 µM

Q: What about the “reduction of the cell count” value (E. coli [1]; NKC attached via polydopamine (PD) to PS plate, E. coli, 2 h) of the same substance?
A: approximately 4.2 log
